# US11839210B1, “Plant growth promoter with strigolactones regulation activities” (King Abdullah University of Science and Technology, priority 2017, dated 2023)
# Experiments:
# [1] = test system: SL biosynthesis genes (D27, CCD7, CCD8 and CO); test: qRT-PCR of transcript levels of SL biosynthesis genes (all four together) in rice roots; format: in vivo; details: Shiokari wild-type and d3 seedlings, phosphate-starved, 5 μM, 6 h
# Protocol: For the analysis of SL transcript levels in the zas mutant, one week-old seedlings were grown hydroponically in half-strength modified Hoagland nutrient solution with K2HPO4·2H2O (+Pi) and without K2HPO4·2H2O (−Pi) for 7 days. Seedlings were further treated with zaxinone for 6 h and tissues were collected.
# (§1) Total RNA was extracted from the roots and shoots using a Qiagen Plant RNeasy Kit according to the manufacturer's instruction. cDNA was synthesized from 1 μg of total RNA using iScript cDNA Synthesis Kit (BIO-RAD Laboratories, Inc, 2000 Alfred Nobel Drive, Hercules, CA, Cat. No #170-8890) according to instructions in the user manual. For mycorrhizal samples, single-strand cDNA was synthesized from 1 μg of total RNA using Super-Script II (Invitrogen) according to instructions in the user manual. Primers used for real-time quantitative RT-PCR (qRT-PCR) analysis are listed below in Table 3. qRT-PCR was performed using SYBR Green Master Mix (Applied Biosystems; www.lifetechnologies.com) in a StepOnePlus (Life Technologies, Carlsbad, CA, USA). For mycorrhizal samples, qRT-PCR was performed using a Rotor-Gene Q 5plex HRM Platform (Qiagen). The 2-ΔCt method was used to calculate the relative gene expression levels and rice Ubiquitin (OsUBQ or OsRubQ1) gene was used as the internal control to normalize target gene expression.
# Two week-old seedlings were grown for another one week in −Pi solution and then transferred to new vials containing fresh −Pi solution with and without the indicated concentrations (2.5 μM, 5 μM, 10 μM and 20 μM) of zaxinone for 6 h and samples were collected. SL biosynthetic genes expression for D27 (FIG. 19A), CCD7 […], CCD8 (FIG. 19C), and CO (Carlactone oxidase-FIG. 19D) in WT and zas mutants. […] The expression levels were detected by quantitative RT-PCR. Ubiquitin was used as a reference gene and the expression levels in the WT-mock were normalized to 1. Bars represent mean±SD (n=3). Different letters above each bar denote significant difference following a One-way ANOVA test (P<0.05).
# Transcript levels of SL biosynthesis genes, D27 (FIG. 24C), CCD7/D17 (FIG. 24D), CCD8/D10 (FIG. 24E) and OsCO (Carlactone oxidase—FIG. 24F) in root tissues were collected for SL quantification. The expression levels were detected by qRT-PCR. Ubiquitin was used as a reference gene and the expression levels in the WT-mock were normalized to 1. Two week-old seedlings were grown for another one week in −Pi solution and then transferred to new vials containing fresh −Pi solution with and without 5 μM of zaxinone and GR24 for 6 h and samples were collected. Bars represent mean±SD (n=3). Different letters above each bar denote significant difference following a One-way ANOVA test (P<0.05).
# Zaxinone Synthase (ZAS) = test: qRT-PCR of ZAS transcript levels in rice after zaxinone or GR24; format: in vivo, rice (Nipponbare); details: WT rice, phosphate starvation, 5 μM, 6 h
# Protocol: as §1
# FIGS. 14A-14C show transcript levels of Zaxinone Synthase (ZAS) in wild type roots and shoots. In FIG. 14A, the relative expression levels of ZAS under normal (+Pi) and phosphate-starved (−Pi) conditions in Nipponbare wild-type (WT) roots and shoots is seen. The expression levels in the WT root were normalized to 1. In FIG. 14B, the relative expression levels of ZAS under −Pi conditions with 5 μM of Zaxinone and GR24 treatment in WT rice root and shoot is seen. Three weeks-old seedlings were transferred to new hydroponic pots containing fresh media with or without chemicals for 6 h. The expression levels in the WT-mock were normalized to 1 and the expression levels were detected by qRT-PCR. Ubiquitin was used as a reference gene. Bars represent mean±SD (n=3). Mock treatment (0.1% acetone). Different letters above each bar denote significant difference following a One-way ANOVA test (P<0.05).
smiles,measurement,setting,value
"CC1=C[C@H](O/C=C2/C(=O)O[C@@H]3c4ccccc4C[C@H]23)OC1=O [GR24, reference compound]",SL transcript levels in roots,[1],affected the transcript levels only in wild-type seedlings
same,ZAS transcript levels in root tissues,Zaxinone Synthase (ZAS),negatively impacted
